According to paper PMC5248971 (Science signaling, 2016):

Biological target: T1, OpuCA (Staphylococcus aureus, UniProt A0A0H2XHM3)
T1 sequence (A0A0H2XHM3 1-408): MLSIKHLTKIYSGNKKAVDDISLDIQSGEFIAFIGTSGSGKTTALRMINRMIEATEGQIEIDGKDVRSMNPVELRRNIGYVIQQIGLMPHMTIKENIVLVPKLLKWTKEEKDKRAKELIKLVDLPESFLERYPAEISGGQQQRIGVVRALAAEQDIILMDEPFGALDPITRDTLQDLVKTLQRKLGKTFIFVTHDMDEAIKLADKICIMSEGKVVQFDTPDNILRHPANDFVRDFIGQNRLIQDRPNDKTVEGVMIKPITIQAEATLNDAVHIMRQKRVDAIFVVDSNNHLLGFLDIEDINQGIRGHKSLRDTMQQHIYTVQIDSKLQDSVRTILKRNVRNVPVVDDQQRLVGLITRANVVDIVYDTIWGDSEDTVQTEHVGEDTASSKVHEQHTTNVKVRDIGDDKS
Assay type: binding

Kd: 2460 ± 140 nM
Structure (SMILES): Nc1ncnc2c1ncn2[C@@H]1O[C@@H]2COP(=O)(O)O[C@H]3[C@@H](O)[C@H](n4cnc5c(N)ncnc54)O[C@@H]3COP(=O)(O)O[C@H]2[C@H]1O [c-di-AMP]
